According to PubChem BioAssay (NCI):
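48-hour exposure; five concentrations; linearly interpolated endpoints. Here, GI50 denotes the concentration required for 50% inhibition of growth. TGI: concentration producing complete growth inhibition.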

Key:
Assay in all cases: NCI anticancer screen, dose series, 48 h
[1] = tested on: LXFL 529 NSCLC
[2] = tested on: BT-549 breast
[3] = tested on: DU-145 prostate
[4] = tested on: HS 578T breast
[5] = tested on: M14 melanoma
[6] = tested on: MDA-MB-231 breast
[7] = tested on: PC-3 prostate
[8] = tested on: HOP-18 NSCLC
[9] = tested on: NCI-H522 lung
[10] = tested on: SN12K1 renal

Structure (SMILES): Clc1ccc2c(Cl)nc(-c3ccccc3)nc2c1
- TGI [1]: > 100 µM

Structure (SMILES): c1ccc(C2=NN[C@H](c3cn(-c4ccccc4)nc3-c3ccccc3)C2)cc1
- GI50 [2]: 5.9 µM
- TGI [2]: > 100 µM
- GI50 [3]: 71.8 µM
- TGI [3]: > 100 µM
- GI50 [4]: 2.63 µM
- TGI [4]: 7.45 µM
- GI50 [5]: 6.46 µM
- TGI [5]: > 100 µM
- GI50 [6]: 3.86 µM
- TGI [6]: > 100 µM
- GI50 [7]: 6.22 µM
- TGI [7]: > 100 µM

Structure (SMILES): Cc1n(CC(C)C)c2c([n+]1CC(=O)c1ccc([N+](=O)[O-])cc1)C(=O)c1ccccc1C2=O
- TGI [8]: 0.202 µM
- TGI [9]: < 0.01 µM
- TGI [10]: 0.279 µM
